The structures appear in SMILES notation.

In experiment [1] the target is CDK4/Cyclin D3 (Homo sapiens) (UniProt P11802+P30281). The experiment can be described thus: (§1) Selectivity interaction (Rxn Biology Kinase assay) EUB0001632a CDK4. In kind it is protein-complex assay. Conditions: at 10 µM.
Experiment [2] deals with Cyclin-dependent kinase 4/cyclin D1 (Homo sapiens) (UniProt P11802+P24385). The experiment is described as §1. The note with it: at 10 µM. In kind it is protein-complex assay.
For experiment [3], the target named is Activin receptor type-1-like (Homo sapiens) (UniProt P37023). The experiment can be described thus: Selectivity interaction (KinomeScan (DiscoverX)) EUB0000595a ACVRL1. The note with it: at 10 µM.
Chain of Activin receptor type-1-like (Homo sapiens) (P37023 whole entry): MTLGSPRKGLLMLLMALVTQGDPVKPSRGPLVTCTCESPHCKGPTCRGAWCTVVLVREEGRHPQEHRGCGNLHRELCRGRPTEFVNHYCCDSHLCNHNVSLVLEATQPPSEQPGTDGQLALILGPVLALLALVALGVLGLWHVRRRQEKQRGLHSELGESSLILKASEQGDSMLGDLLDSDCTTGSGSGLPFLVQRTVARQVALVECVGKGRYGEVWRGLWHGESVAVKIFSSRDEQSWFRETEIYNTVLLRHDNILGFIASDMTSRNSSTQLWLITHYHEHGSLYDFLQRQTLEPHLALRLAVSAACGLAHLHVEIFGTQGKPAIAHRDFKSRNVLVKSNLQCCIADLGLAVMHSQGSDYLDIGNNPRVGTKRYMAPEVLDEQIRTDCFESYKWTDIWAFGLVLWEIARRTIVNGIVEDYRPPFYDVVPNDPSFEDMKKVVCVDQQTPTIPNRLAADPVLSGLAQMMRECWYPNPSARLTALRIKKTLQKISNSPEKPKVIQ
Experiment [4] addresses Cyclin-dependent kinase 2 (Homo sapiens, UniProt P24941). The experiment can be described thus: Selectivity interaction (KinomeScan (DiscoverX)) EUB0000595a CDK2. The note with it: at 10 µM.
The target of experiment [5] is Protein-tyrosine kinase 2-beta (Homo sapiens) (UniProt Q14289). The experiment can be described thus: Selectivity interaction (KinomeScan (DiscoverX)) EUB0000595a PTK2B. Conditions: at 10 µM.
Chain of Protein-tyrosine kinase 2-beta (Homo sapiens) (Q14289 whole entry, looked up): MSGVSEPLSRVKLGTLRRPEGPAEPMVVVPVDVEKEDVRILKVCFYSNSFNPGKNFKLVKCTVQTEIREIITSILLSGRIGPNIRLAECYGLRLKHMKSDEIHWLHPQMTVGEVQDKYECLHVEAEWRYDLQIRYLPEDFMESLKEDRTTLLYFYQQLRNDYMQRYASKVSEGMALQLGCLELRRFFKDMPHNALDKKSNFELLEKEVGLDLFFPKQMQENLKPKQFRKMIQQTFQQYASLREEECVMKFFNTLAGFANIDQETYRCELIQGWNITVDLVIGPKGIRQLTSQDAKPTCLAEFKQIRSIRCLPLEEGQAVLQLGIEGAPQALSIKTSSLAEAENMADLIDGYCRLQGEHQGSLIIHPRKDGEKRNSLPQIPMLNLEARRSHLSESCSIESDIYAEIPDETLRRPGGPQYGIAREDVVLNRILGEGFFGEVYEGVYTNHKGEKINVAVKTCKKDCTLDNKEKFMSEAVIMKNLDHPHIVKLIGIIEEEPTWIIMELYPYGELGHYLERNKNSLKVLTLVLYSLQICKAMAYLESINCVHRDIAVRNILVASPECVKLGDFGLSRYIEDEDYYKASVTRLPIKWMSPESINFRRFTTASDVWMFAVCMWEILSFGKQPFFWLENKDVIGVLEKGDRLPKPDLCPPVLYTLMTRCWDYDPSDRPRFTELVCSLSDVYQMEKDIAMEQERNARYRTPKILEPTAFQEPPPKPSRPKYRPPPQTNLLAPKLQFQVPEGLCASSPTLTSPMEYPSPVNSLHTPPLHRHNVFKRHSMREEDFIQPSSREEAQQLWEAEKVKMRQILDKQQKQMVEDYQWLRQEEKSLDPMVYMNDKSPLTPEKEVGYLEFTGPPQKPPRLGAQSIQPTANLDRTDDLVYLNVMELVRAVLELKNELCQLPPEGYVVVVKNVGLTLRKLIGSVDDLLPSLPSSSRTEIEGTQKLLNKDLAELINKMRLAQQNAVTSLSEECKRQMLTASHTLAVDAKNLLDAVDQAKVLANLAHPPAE
In experiment [6] the target is Fibroblast growth factor receptor 4 (Homo sapiens, UniProt P22455). Conditions: at 10 µM.
Chain of Fibroblast growth factor receptor 4 (P22455 22-802 limits assumed): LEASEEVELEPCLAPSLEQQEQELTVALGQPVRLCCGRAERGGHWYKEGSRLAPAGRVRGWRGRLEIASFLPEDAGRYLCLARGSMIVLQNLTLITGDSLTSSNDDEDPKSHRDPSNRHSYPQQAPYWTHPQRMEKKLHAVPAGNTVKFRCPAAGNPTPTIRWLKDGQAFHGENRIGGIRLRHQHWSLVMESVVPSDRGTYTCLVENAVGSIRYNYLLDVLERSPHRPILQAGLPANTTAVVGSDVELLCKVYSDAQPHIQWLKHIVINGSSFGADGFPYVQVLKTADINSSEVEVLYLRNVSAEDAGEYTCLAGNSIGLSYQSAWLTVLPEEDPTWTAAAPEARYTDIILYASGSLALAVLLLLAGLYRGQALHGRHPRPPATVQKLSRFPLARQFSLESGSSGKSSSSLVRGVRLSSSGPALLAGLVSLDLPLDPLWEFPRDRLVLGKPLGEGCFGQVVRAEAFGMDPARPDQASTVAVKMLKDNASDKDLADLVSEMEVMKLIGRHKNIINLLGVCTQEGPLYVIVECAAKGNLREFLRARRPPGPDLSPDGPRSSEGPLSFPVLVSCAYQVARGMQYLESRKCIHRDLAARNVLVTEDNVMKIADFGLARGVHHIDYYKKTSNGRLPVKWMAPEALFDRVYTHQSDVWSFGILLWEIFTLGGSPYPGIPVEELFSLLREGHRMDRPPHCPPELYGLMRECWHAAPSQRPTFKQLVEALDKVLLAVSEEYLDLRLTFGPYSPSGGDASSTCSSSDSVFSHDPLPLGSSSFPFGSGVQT
Experiment [7] addresses Serine/threonine-protein kinase 16 (Homo sapiens, UniProt O75716). The experiment can be described thus: Selectivity interaction (KinomeScan (DiscoverX)) EUB0000666a STK16. Conditions: at 10 µM.
Experiment [8] has as its target T1, Cyclin-dependent kinase-like 2 (Homo sapiens) (UniProt Q92772).
T1 sequence (whole entry): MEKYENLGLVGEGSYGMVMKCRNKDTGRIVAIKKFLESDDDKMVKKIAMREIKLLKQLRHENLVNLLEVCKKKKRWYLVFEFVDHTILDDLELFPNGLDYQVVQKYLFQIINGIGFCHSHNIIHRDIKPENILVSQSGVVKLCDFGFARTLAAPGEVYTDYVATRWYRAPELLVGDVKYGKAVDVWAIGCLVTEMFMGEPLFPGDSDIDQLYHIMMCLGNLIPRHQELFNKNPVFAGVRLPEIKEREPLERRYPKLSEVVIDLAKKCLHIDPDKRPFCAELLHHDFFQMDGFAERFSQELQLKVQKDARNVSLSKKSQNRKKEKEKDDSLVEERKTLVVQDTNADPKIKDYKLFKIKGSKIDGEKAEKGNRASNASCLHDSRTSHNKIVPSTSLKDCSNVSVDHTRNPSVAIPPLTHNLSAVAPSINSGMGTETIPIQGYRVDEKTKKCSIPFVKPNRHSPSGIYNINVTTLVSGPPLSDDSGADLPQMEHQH
The experiment is described as follows: Selectivity interaction (KinomeScan (DiscoverX)) EUB0000607a CDKL2. The note with it: at 10 µM.

In experiment [9] the target is Ribosomal protein S6 kinase alpha-4 (Homo sapiens) (UniProt O75676). The experiment is described as follows: Selectivity interaction (KinomeScan (DiscoverX)) EUB0000607a RPS6KA4. The note with it: at 10 µM.
Chain of Ribosomal protein S6 kinase alpha-4 (Homo sapiens) (O75676 whole entry, looked up): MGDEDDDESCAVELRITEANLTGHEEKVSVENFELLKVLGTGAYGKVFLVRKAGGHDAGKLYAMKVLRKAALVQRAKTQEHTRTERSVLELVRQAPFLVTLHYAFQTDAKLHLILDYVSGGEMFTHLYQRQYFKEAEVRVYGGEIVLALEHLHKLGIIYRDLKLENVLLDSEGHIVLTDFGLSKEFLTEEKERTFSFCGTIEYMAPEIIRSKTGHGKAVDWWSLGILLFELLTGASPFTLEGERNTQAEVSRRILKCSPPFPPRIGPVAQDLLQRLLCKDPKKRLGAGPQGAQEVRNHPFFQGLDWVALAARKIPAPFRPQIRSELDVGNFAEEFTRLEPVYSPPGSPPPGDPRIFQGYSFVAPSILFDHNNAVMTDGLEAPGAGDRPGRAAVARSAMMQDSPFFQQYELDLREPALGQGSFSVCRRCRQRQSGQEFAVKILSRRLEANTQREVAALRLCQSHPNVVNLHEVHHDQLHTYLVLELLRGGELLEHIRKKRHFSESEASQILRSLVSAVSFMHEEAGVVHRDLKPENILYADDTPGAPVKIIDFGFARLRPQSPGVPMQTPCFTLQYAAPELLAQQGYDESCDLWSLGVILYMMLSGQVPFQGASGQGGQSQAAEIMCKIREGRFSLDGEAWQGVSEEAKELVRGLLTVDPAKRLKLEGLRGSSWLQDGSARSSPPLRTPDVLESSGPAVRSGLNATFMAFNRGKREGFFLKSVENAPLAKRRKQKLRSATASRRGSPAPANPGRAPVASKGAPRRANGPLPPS
Experiment [10] in a line: Selectivity interaction (Ambit KINOMEscan and KiNATiv profiling in Jurkat cells) EUB0000090b CDPK1. The note with it: Selectivity number of off-targets 9; Selectivity number of targets 456; Source Knowledge https://www.nature.com/articles/nchembio.2166; at 1 µM.
Experiment [11] has as its target T2, Serine/threonine-protein kinase TAO1 (Homo sapiens) (UniProt Q7L7X3).
T2 sequence (whole entry): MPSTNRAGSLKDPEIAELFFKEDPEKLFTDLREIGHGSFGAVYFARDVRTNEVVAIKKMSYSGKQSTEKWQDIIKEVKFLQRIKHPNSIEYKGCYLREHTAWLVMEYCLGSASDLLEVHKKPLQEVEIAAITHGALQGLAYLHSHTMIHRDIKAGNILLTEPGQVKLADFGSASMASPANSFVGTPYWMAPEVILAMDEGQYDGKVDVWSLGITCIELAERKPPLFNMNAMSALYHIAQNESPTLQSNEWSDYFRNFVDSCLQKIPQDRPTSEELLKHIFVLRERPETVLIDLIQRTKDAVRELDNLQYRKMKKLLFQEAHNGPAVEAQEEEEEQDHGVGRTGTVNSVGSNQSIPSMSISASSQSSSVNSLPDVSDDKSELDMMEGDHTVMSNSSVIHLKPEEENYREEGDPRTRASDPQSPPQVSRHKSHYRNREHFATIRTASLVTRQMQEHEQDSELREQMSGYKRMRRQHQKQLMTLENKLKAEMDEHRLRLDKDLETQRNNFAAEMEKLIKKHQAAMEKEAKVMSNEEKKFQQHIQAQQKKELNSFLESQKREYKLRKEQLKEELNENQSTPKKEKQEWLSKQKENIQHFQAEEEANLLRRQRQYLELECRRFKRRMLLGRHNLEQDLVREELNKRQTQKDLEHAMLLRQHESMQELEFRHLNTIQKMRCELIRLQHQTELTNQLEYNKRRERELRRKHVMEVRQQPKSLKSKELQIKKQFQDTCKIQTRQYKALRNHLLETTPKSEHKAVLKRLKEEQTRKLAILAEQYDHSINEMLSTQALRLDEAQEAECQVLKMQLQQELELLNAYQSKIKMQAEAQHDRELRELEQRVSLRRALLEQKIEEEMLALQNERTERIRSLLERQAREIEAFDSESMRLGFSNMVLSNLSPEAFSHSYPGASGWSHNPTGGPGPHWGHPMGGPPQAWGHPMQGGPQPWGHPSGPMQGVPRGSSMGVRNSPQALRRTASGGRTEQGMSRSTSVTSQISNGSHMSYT
The experiment is described as follows: Selectivity interaction (Ambit KINOMEscan and KiNATiv profiling in Jurkat cells) EUB0000090b TAOK1. Conditions: at 1 µM. The class given is cell-based.

For experiment [12], the target named is Myosin light chain kinase, smooth muscle (Homo sapiens, UniProt Q15746). The experiment is described as follows: Selectivity interaction (KinomeScan (DiscoverX)) EUB0000655a MYLK. Conditions: at 10 µM.
Experiment [13] concerns the target Calcium/calmodulin-dependent protein kinase type 1D (Homo sapiens) (UniProt Q8IU85). The experiment is described as follows: Selectivity interaction (KinomeScan (DiscoverX)) EUB0001079a CAMK1D. Conditions: at 1 µM.
Experiment [14] concerns the target Protein kinase C alpha type (Homo sapiens, UniProt P17252). The experiment is described as follows: Selectivity interaction (Millipore kinase profiler) EUB0000124b PRKCA. The note with it: at 10 µM.

Chain of Calcium/calmodulin-dependent protein kinase type 1D (Homo sapiens) (Q8IU85 whole entry, looked up): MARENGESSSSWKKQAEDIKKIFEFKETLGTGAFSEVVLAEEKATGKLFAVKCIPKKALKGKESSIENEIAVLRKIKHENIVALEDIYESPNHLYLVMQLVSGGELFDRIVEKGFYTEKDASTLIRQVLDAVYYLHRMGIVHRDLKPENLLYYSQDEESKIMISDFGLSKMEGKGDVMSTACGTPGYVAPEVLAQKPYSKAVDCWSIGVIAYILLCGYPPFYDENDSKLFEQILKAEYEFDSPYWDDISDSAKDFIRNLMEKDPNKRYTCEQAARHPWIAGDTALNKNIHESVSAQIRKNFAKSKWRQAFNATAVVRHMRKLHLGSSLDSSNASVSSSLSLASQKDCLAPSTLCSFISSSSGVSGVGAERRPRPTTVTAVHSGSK
Chain of Serine/threonine-protein kinase 16 (O75716 whole entry): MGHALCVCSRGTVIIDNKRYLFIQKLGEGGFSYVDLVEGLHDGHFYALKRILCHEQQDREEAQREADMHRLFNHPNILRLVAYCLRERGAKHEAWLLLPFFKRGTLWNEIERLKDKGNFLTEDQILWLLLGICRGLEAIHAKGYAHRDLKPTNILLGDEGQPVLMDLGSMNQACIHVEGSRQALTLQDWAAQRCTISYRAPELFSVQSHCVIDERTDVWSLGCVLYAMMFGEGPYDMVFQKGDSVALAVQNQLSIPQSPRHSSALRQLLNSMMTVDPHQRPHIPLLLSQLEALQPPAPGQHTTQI

For `Cn1cc(-n2cnc3c(NCc4nc5cc(Cl)c(Cl)cc5[nH]4)nc(N4CCOCC4)nc32)cn1`, the results for the % of inhibition in experiment [1] and in experiment [2] were 46.3% and 46.7%, respectively.

In the case of `COCC(=O)NC/C=C/c1ccc2ncnc(Nc3ccc(Oc4ccc(C)nc4)c(C)c3)c2c1` [CP-724714], the % of control came to 84% in experiment [3], 92% in experiment [4], 80% in experiment [5] and 100% in experiment [6].

`O=C(NOC[C@H](O)CO)c1ccc(F)c(F)c1Nc1ccc(I)cc1F`: the % of control in [7] amounted to 99%.

As for `CNC(=O)Nc1ccc(-c2nc(N3CC4CCC(C3)O4)c3cnn(C4CCC5(CC4)OCCO5)c3n2)cc1`, the % of control in experiment [8] and in experiment [9] was 100% in each case.

With `CN(C)C/C=C/C(=O)Nc1ccc(C(=O)N2CCCC(Nc3ncc(Cl)c(-c4c[nH]c5ccccc45)n3)C2)cc1` (centres undefined), the entries for the “% of control” value in experiment [10] and in experiment [11] were 7% and 93%, respectively.

`CN(C)CCOc1ccc(-c2nc(-c3ccncc3)c(-c3ccc4c(c3)CC/C4=N\O)[nH]2)cc1` had a % of control in experiment [12] of 51%.

For the compound `Nc1cnc(N2CCc3cc(S(=O)(=O)Nc4c(F)cc(Cl)cc4F)cc(N4CCCC4=O)c32)nc1` [TP-020n], the % of control in experiment [13] was found to be 97%.

In experiment [14], `CC(=O)Nc1cccc(-n2c(=O)n(C3CC3)c(=O)c3c(Nc4ccc(I)cc4F)n(C)c(=O)c(C)c32)c1` registered a % of control of 101%.
